The source of these data is patent US20030013660A1, “Dioxolane analogs for improved inter-cellular delivery” (Shire BioChem Inc., priority 2000, published 2003).

Experiment in all cases: 3H-TdR (3H-thymidine) incorporation assay at 72 hr
One experiment has as its system SF-268. Format: cell-based, Human. The following applies: 3H-TdR incorporation at 72 hr.
The subject of another experiment is MCF-7. Format: cell-based, Human. The following applies: Homo sapiens, MCF7, read-out: IC50 MCF-7 24 h, 24 h drug exposure, wash, another 48 hr; 3H-TdR incorporation at 72 hr.
In a further experiment the test system is H-460. In kind it is cell-based, Human. The note with it: 3H-TdR incorporation at 72 hr.
A further experiment has as its system CEM/dCK-. Format: cell-based. The following applies: for IC50: deoxycytidine kinase-deficient CCRF-CEM; for Factor* (Resistance Factor = Ratio of dCK- on Wild-type CCRF-CEM): ratio of IC50 CEM/dCK- to CCRF-CEM, 24 h. The protocol:
(§1) Table of IC50 Values (μM) for Controls
(§2) Exposition of 24 hr to drug, wash, incubated for another 48 hr (total of 72 hr assay)
(§3) (3H-Thymidine Incorporation Assay)

The test system of a further experiment is CCRF-CEM. In kind it is cell-based. The following applies: 3H-TdR incorporation at 72 hr. Here is the method:
as §1, §2, §3

Where [1] appears, read: Homo sapiens, SF-268, read-out: IC50 SF-268 24 h, 24 h drug exposure, wash, another 48 hr.
Setting [2] is: Homo sapiens, NCI-H460, read-out: IC50 H-460 24 h, 24 h drug exposure, wash, another 48 hr.
Where [3] appears, read: Homo sapiens, CCRF-CEM, read-out: IC50 CEM/dCK- 24 h, 24 h drug exposure, wash, another 48 hr.
Where [4] appears, read: Homo sapiens, CCRF-CEM, read-out: IC50 CCRF-CEM 24 h, 24 h drug exposure, wash, another 48 hr.
The mark [5] stands for this setting: read-out: IC50 SF-268 24 h, 24 h drug exposure, wash, another 48 hr.
Setting [6] is: read-out: IC50 H-460 24 h, 24 h drug exposure, wash, another 48 hr.
Setting [7] is: read-out: IC50 CCRF-CEM 24 h, 24 h drug exposure, wash, another 48 hr.
[8] abbreviates: read-out: IC50 CEM/dCK- 24 h, 24 h drug exposure, wash, another 48 hr.

Read-outs that look alike come from different tables or passages of the source. Bounds are passed on as bounds.

Regarding `Nc1ccn([C@@H]2CO[C@H](CO[C@@H]3O[C@H](CO)[C@@H](O)[C@H]3O)O2)c(=O)n1.O=C(O)C(F)(F)F` [Compound 85, 4-AMINO-1-[2-(3,4- DIHYDROXY-5- HYDROXYMETHYL- TETRAHYDROFURAN-2- YLOXYMETHYL)- [1,3]DIOXOLAN-4-YL]- 1HPYIMIDIN-2-ONE, TRIFLUOROACETIC ACID SALT], the IC50 with SF-268 (setting [1]) is 16000 nM; with MCF-7, 6800 nM; with H-460 (setting [2]), 690 nM; with CEM/dCK- (setting [3]), > 100000 nM; in the experiment with CCRF-CEM (setting [4]), 2600 nM. Moreover, the “Factor* (Resistance Factor = Ratio of dCK- on Wild-type CCRF-CEM)” value with CEM/dCK- is reported as 38.
In the case of `CC(C)C(C(=O)OC[C@H]1OC[C@@H](n2ccc(N)nc2=O)O1)N(C)C` (stereo partly drawn) [Compound 156, (2S,4S)-2-(N,N- DIMETHYL-L- VALINYLOXYMETHYL)-4- CYTOSIN-1′-YL-1,3- DIOXOLANE], the IC50 with SF-268 (setting [1]) stood at 930 nM; in the experiment on MCF-7, 68 nM; in the experiment on H-460 (setting [2]) it was 120 nM; in the experiment on CEM/dCK- (setting [3]) it was 81000 nM; in the experiment on CCRF-CEM (setting [4]) it was 7 nM. The “Factor* (Resistance Factor = Ratio of dCK- on Wild-type CCRF-CEM)” value with CEM/dCK- was 11,571.
As to `CCOC(OCC)OC[C@H]1OC[C@@H](n2ccc(N)nc2=O)O1` [Compound 39, 4-AMINO-1-(2- DIETHOXYMETHOXYMETHYL- [1,3]DIOXOLAN-4-YL)-1H- PYRIMIDIN-2-ONE], the IC50 with SF-268 (setting [1]) is 320 nM; with SF-268 (setting [5]), 390 nM; in the experiment with H-460 (setting [2]), 160 nM; in the experiment on H-460 (setting [6]) it was 120 nM; with CEM/dCK- (setting [3]) it was > 100000 nM; in the experiment on CCRF-CEM (setting [4]) it was 47 nM. Further, the IC50 in the experiment with CCRF-CEM (setting [7]) amounted to 62 nM.
Consider `CCCCCCCCCCNC(=O)OC[C@H]1OC[C@@H](n2ccc(N)nc2=O)O1` [Compound 137, DECYL-CARBAMIC ACID 4- (4-AMINO-2-OXO-2H- PYRIMIDIN-1-YL)- [1,3]DIOXOLAN-2- YLMETHYL ESTER], for which the IC50 with SF-268 (setting [1]) is 18400 nM; in the experiment with SF-268 (setting [5]) it was 16000 nM; in the experiment with CEM/dCK- (setting [3]), 84000 nM; in the experiment with CEM/dCK- (setting [8]) it was 53000 nM; in the experiment on CCRF-CEM (setting [4]) it was 5000 nM; in the experiment on CCRF-CEM (setting [7]), 6500 nM.
For `Nc1ccn([C@@H]2CO[C@H](COC(=O)Oc3ccccc3)O2)c(=O)n1` [Compound 42, CARBONIC ACID 4-(4- AMINO-2-OXO-2H- PYRIMIDIN-1-YL)- [1,3]DIOXOLAN-2- YLMETHYL ESTER PHENYL ESTER], the IC50 in the experiment on SF-268 (setting [1]) was 22 nM; with SF-268 (setting [5]), 26 nM; in the experiment with H-460 (setting [2]), 10 nM; with H-460 (setting [6]) it was 7 nM; with CEM/dCK- (setting [3]) it was 82000 nM; in the experiment with CEM/dCK- (setting [8]), > 100000 nM. Further, the values for the IC50 with CCRF-CEM (setting [4]) and with CCRF-CEM (setting [7]) were 2.2 nM and 2.3 nM, respectively.
For `CC(C)OC(=O)OC[C@H]1OC[C@@H](n2ccc(N)nc2=O)O1.O=C(O)C(F)(F)F` [Compound 67, CARBONIC ACID 4-(4- AMINO-2-OXO-2H- PYRIMIDIN-1-YL)- [1,3]DIOXOLAN-2- YLMETHYL ESTER ISOPROPYL ESTER TRIFLUOROACETATE SALT], the IC50 with SF-268 (setting [1]) is 400 nM; in the experiment with H-460 (setting [2]) it was 82 nM; in the experiment with CEM/dCK- (setting [3]) it was > 100000 nM; in the experiment with CCRF-CEM (setting [4]) it was 180 nM. Moreover, the “Factor* (Resistance Factor = Ratio of dCK- on Wild-type CCRF-CEM)” value with CEM/dCK- worked out at 556.
With `Nc1ccn([C@@H]2CO[C@H](COC(=O)OCc3ccccc3)O2)c(=O)n1` [Compound 57, CARBONIC ACID 4-(4- AMINO-2-OXO-2H- PYRIMIDIN-1-YL)- [1,3]DIOXOLAN-2- YLMETHYL ESTER BENZYL ESTER], the IC50 with SF-268 (setting [1]) was 47 nM; in the experiment on MCF-7, 19 nM; in the experiment with CEM/dCK- (setting [3]), 32000 nM; in the experiment with CCRF-CEM (setting [4]), 4.8 nM.
On to `CCCCC(CC)C(=O)Nc1ccn([C@@H]2CO[C@H](CO)O2)c(=O)n1` (stereo in doubt) [Compound 99, 2-ETHYL-HEXANOIC ACID [1-(2-HYDROXYMETHYL- [1,3]DIOXOLAN-4-YL)-2- OXO-1,2-DIHYDRO- PYRIMIDIN-4-YL]-AMIDE], for which the IC50 with SF-268 (setting [1]) is 33000 nM; in the experiment with MCF-7 it was 6300 nM; in the experiment on CEM/dCK- (setting [3]), > 100000 nM; in the experiment with CCRF-CEM (setting [4]), 5000 nM. Moreover, the “Factor* (Resistance Factor = Ratio of dCK- on Wild-type CCRF-CEM)” value with CEM/dCK- is recorded as >20.
